Measurements published in paper PMC5063830, “Design and synthesis of chalcone derivatives as potential non-purine xanthine oxidase inhibitors” (SpringerPlus, 2016).

How the values were obtained:
xanthine oxidase = xanthine oxidase (Bos taurus, UniProt P80457); experiment: Assessment of xanthine oxidase inhibitory activity (spectrophotometric, 290 nm); assay type: biochemical; details: for IC50: 150 μM xanthine, 70 mM phosphate buffer pH 7.5, 25 °C, mean of four determinations, read-out: XO inhibitory activity IC50
Description: The assay mixture consisting of 50 μL of test solution, 35 μL of 70 mM phosphate buffer (pH 7.5), and 30 μL of enzyme solution (0.01 units/mL in 70 mM phosphate buffer, pH 7.5) was prepared immediately before use. […] The reaction was stopped by adding 25 μL of HCl 1 N, and the absorbance at 290 nm was measured with a Shimadzu UV-1800. […] XO inhibitory activity was expressed as the percentage inhibition of XO in the above assay system, calculated as (1 − B/A) × 100, where A and B are the activities of the enzyme without and with the test material. IC50 values were calculated from the mean values of data from four determinations.

Sequence of xanthine oxidase (P80457 2-1332 limits assumed): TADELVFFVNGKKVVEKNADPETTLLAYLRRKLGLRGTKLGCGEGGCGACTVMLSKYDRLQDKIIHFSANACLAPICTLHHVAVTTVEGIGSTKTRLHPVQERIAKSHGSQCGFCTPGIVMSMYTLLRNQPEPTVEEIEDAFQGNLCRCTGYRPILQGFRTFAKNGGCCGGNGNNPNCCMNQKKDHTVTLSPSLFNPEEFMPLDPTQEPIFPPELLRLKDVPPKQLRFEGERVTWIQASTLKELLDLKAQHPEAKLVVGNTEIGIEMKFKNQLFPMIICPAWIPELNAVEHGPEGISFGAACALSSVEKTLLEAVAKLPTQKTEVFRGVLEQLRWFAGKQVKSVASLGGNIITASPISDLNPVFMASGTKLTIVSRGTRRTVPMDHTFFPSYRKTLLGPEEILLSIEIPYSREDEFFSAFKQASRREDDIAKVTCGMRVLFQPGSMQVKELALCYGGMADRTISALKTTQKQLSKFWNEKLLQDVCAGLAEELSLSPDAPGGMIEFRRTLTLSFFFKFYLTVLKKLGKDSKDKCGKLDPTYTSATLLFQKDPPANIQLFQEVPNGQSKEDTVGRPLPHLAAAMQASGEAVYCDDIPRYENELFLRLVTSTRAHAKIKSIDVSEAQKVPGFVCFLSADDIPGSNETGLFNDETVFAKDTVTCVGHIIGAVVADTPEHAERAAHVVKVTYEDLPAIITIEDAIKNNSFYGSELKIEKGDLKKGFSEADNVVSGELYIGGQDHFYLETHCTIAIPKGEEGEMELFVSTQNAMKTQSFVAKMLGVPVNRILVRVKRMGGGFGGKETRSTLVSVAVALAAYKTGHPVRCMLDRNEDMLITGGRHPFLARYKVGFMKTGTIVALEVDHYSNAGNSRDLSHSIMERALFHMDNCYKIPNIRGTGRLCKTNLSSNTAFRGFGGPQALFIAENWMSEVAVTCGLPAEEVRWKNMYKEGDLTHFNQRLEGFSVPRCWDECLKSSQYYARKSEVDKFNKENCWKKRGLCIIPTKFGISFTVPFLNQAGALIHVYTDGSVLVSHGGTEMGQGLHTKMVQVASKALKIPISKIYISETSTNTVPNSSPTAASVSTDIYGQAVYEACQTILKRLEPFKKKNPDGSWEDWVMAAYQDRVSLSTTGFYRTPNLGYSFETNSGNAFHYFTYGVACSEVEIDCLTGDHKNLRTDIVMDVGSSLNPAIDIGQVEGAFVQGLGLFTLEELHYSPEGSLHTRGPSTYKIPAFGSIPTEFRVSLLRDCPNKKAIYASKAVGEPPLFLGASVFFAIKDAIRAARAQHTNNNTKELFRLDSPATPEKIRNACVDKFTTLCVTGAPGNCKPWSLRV

SMILES | IC50 (xanthine oxidase) [µM] | XO inhibitory activity (in words) (xanthine oxidase) | melting point [°C]
COc1ccc(C(=O)/C=C/c2ccc(O)c(O)c2)c(O)c1C(=O)/C=C/c1ccc(O)c(O)c1 [Compound 13, 3ʹ-caffeoyl-3,4,2ʹ-trihydroxy-4ʹ-methoxychalcone] | 2.4 | most potent active | 200 to 201
COc1ccc(/C=C/C(=O)c2ccccc2)cc1OC [Compound 15, 3,4-dimethoxychalcone] | > 100 |  | 
COc1ccc(/C=C/C(=O)c2ccccc2)cc1O [Compound 14, 3-hydroxy-4-methoxychalcone] | > 100 |  | 
COc1ccc(/C=C/C(=O)c2ccc(O)cc2O)cc1OC [Compound 9, 2ʹ,4ʹ-dihydroxy-3,4-dimethoxychalcone] | > 100 |  | 
O=C(/C=C/c1ccccc1)c1ccccc1 [Compound 18, chalcone] | > 100 | not displayed xanthine oxidase inhibitory activity | 
O=C(/C=C/c1ccccc1)c1ccc(O)cc1O [Compound 4, 2′,4′-dihydroxychalcone] | > 100 | do not show activity | 
CC(=O)Oc1ccc(C(=O)/C=C/c2ccc(OC(C)=O)c(OC(C)=O)c2)c(O)c1 [Compound 17, 3,4,4ʹ-triacetoxy-2ʹ-hydroxychalcone] | > 100 |  | 110 to 111
O=C(/C=C/c1ccc(O)c(O)c1)c1ccccc1 [Compound 3, 3,4-dihydroxychalcone] | 40.9 |  | 
O=C(/C=C/c1ccc(O)cc1O)c1ccc(O)cc1O [Compound 6, 2,4,2′,4′-tetrahydroxychalcone] | 16.3 |  | 

More lines, main results first:

IC50 (xanthine oxidase) [µM] | XO inhibitory activity (in words) (xanthine oxidase) | SMILES | melting point [°C]
19.2 |  | COc1ccc(C(=O)/C=C/c2ccc(O)c(O)c2)c(O)c1 [Compound 10, 3,4,2ʹ-trihydroxy-4ʹ-methoxychalcone] | 
21.8 |  | COc1ccc(/C=C/C(=O)c2ccc(O)cc2O)c(O)c1 [Compound 12, 2,2ʹ,4ʹ-trihydroxy-4-methoxychalcone] | 
2.5 |  | COc1ccc(C(=O)/C=C/c2ccc(O)c(O)c2)c(OC)c1 [Compound 11, 3,4-dihydroxy-2ʹ,4ʹ-dimethoxychalcone] | 
36.7 |  | COc1ccc(/C=C/C(=O)c2ccc(O)cc2O)cc1O [Compound 8, 3,2ʹ,4ʹ-trihydroxy-4-methoxychalcone] | 
> 100 |  | COc1ccc(C(=O)/C=C/c2ccc(OC)c(OC)c2)c(O)c1 [Compound 16, 2ʹ-hydroxy-3,4,4ʹ-trimethoxychalcone] | 
4.3 |  | O=C(/C=C/c1ccc(O)c(O)c1)c1ccc(O)cc1O [Compound 5, 3,4,2ʹ,4ʹ-tetrahydroxychalcone] | 
